Data published in BigSolDB 2.1.

CC(=O)Oc1ccccc1C(=O)Nc1ncc([N+](=O)[O-])s1
solubility (mole fraction)
Settings | 273.15 K | 278.15 K | 283.15 K | 288.15 K | 293.15 K | 298.15 K | 303.15 K | 308.15 K | 313.15 K
in 1,4-dioxane | – | – | – | 0.0102 | 0.0131 | 0.0167 | 0.0207 | 0.0254 | 0.0311
in 2-butanone | 0.00334 | 0.00496 | 0.0066 | 0.00859 | 0.0107 | 0.0131 | 0.0158 | 0.0191 | 0.0229
in DMF | 0.0637 | 0.0672 | 0.0711 | 0.0751 | 0.0797 | 0.0846 | 0.0901 | 0.097 | 0.104
in NMP | 0.0878 | 0.09 | 0.0925 | 0.0953 | 0.098 | 0.101 | 0.105 | 0.109 | 0.113
in acetonitrile | 0.00082 | 0.000924 | 0.00103 | 0.00115 | 0.00127 | 0.00141 | 0.00158 | 0.00178 | 0.00201
in ethanol | 0.000117 | 0.000147 | 0.000179 | 0.000211 | 0.000246 | 0.000285 | 0.000331 | 0.000385 | 0.00045
in ethyl acetate | 0.00185 | 0.00206 | 0.00229 | 0.00252 | 0.00276 | 0.003 | 0.0033 | 0.00362 | 0.00399
in isopropanol | 0.000162 | 0.000202 | 0.000243 | 0.000287 | 0.000333 | 0.000383 | 0.000436 | 0.000502 | 0.00058
in methanol | 0.000103 | 0.000126 | 0.00015 | 0.000177 | 0.000202 | 0.00023 | 0.000261 | 0.000298 | 0.000334
in n-butanol | 0.000176 | 0.000214 | 0.000257 | 0.000303 | 0.000354 | 0.000408 | 0.000471 | 0.000541 | 0.000617
in n-propanol | 0.000138 | 0.000173 | 0.000211 | 0.00025 | 0.00029 | 0.000336 | 0.00039 | 0.000453 | 0.000525
in toluene | 7.6e-05 | 9.9e-05 | 0.000123 | 0.000146 | 0.00017 | 0.000197 | 0.000225 | 0.000258 | 0.000291
